Results from ChEMBL document CHEMBL1126951, “Structure-based design of inhibitors of purine nucleoside phosphorylase. 2. 9-Alicyclic and 9-heteroalicyclic derivatives of 9-deazaguanine” (J Med Chem, 1993).

Assays:
[1] = biological target: T1, Purine nucleoside phosphorylase (Bos taurus, UniProt P55859); test: Inhibition of purine nucleoside phosphorylase from calf spleen in 50 mM phosphate
T1 sequence (P55859 whole entry): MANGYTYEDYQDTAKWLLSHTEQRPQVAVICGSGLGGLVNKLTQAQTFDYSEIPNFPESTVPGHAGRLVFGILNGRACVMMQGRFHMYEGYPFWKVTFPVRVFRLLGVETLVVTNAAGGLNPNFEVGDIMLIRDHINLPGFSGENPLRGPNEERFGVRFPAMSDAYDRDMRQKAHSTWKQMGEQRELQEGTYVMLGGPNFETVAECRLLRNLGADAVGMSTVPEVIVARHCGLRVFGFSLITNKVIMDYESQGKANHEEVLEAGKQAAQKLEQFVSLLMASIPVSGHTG

[2] = biological target: T1, Purine nucleoside phosphorylase; test: biochemical
Description: In vitro inhibition of purine nucleoside phosphorylase from calf spleen in 1 mM phosphate

| Structure (SMILES) | IC50 [1] [nM] | IC50 [2] [nM] |
| --- | --- | --- |
| Nc1nc(O)c2[nH]cc(C3CCCCC3)c2n1 | 150000 | – |
| Nc1nc2c(CC3CCCO3)c[nH]c2c(=O)[nH]1 (centres undefined) | 300 | 70 |
| Nc1nc2c(CC3CCCCCC3)c[nH]c2c(=O)[nH]1 | 860 | – |
| Nc1nc(O)c2[nH]cc(C3=CCCCC3)c2n1 | 19000 | 1900 |
| Nc1nc(O)c2[nH]cc(CC3CCCSS3)c2n1 (centres undefined) | 200 | – |

Other lines, results leading:

| IC50 [1] [nM] | IC50 [2] [nM] | Structure (SMILES) |
| --- | --- | --- |
| 150000 | 6600 | Nc1nc(O)c2[nH]c(N)c(CC3CCCCC3)c2n1 |
| 220 | 11 | Nc1nc2c(CC3CCCS3)c[nH]c2c(=O)[nH]1 (centres undefined) |
| 1000 | 1000 | Nc1nc2c(CC3CCCNC3)c[nH]c2c(=O)[nH]1 (centres undefined) |
| 820 | – | CC1CCCC(Cc2c[nH]c3c(=O)[nH]c(N)nc23)C1 (centres undefined) |
